# Source: paper PMC10175918 (Communications Biology, 2023)
# Like-named read-outs stand apart in the source and are kept apart here.
# Tests used:
# Assay in all cases: TGFα-shedding assay-based GPCR screening with chimeric Gα subunit proteins
# Type in all cases: cell-based
# [1] = biological target: T1, 348 GPCRs (Homo sapiens, UniProt Q7Z601); details: 10µM, Favipiravir 100μM
# T1 construct: expressed in transfected cells; host or cells: HEK293A
# T1 sequence (Q7Z601 1-462): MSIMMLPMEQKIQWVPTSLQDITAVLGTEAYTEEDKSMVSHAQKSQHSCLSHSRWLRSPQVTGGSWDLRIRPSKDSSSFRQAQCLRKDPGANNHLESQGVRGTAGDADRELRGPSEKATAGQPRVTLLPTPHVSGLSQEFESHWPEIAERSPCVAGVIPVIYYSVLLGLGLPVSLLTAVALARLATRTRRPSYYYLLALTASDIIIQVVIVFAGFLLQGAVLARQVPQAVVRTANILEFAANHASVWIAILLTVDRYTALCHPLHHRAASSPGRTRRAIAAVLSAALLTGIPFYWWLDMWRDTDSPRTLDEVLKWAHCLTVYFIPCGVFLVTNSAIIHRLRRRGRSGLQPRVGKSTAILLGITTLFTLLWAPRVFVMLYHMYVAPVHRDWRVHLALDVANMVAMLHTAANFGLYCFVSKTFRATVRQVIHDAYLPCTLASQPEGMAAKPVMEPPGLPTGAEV
# [2] = biological target: T2, 348 GPCRs (Homo sapiens, UniProt P46091)
# T2 construct: expressed in transfected cells; host or cells: HEK293A
# T2 sequence (P46091 1-355): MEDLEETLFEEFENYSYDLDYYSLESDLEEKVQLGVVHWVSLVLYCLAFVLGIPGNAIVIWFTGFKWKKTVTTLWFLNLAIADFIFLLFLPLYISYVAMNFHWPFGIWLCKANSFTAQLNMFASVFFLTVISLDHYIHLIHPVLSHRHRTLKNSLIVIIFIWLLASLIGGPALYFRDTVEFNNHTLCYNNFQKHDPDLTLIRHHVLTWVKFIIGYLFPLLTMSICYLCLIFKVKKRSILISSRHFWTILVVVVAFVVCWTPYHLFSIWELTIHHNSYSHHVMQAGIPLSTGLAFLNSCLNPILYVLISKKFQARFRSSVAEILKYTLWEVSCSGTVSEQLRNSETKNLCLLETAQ
# [3] = biological target: T3, 348 GPCRs (Homo sapiens, UniProt P46094)
# T3 construct: expressed in transfected cells; host or cells: HEK293A
# T3 sequence (P46094 1-333): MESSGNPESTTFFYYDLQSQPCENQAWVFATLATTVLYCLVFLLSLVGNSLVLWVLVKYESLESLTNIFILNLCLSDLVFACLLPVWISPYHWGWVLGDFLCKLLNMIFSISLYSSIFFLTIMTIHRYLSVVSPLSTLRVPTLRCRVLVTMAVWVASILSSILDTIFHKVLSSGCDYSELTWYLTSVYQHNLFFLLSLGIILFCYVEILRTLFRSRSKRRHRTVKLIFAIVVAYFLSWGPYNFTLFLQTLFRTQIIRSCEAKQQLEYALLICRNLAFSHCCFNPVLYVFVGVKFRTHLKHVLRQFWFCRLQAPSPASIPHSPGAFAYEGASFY
# [4] = biological target: T4, 348 GPCRs (Homo sapiens, UniProt Q8NFJ6); details: 10µM, Favipiravir 100μM
# T4 construct: expressed in transfected cells; host or cells: HEK293A
# [5] = biological target: T5, 348 GPCRs (Homo sapiens, UniProt P08173)
# T5 construct: expressed in transfected cells; host or cells: HEK293A
# T5 sequence (P08173 1-479): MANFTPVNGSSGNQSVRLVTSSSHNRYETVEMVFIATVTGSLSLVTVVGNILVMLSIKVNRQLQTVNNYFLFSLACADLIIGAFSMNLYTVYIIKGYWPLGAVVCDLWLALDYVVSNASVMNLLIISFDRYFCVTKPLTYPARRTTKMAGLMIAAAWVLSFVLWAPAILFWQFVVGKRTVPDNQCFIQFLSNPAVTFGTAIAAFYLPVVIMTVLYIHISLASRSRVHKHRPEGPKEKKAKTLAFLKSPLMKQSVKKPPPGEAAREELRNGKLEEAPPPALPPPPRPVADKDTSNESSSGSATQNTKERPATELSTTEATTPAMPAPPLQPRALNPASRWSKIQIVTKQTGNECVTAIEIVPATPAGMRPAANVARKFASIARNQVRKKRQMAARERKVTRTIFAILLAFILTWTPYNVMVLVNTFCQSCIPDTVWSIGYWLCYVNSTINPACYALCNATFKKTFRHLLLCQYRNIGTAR
# [6] = biological target: 348 GPCRs (Homo sapiens, UniProt Q9UPC5); details: 10µM, Favipiravir 100μM
# [7] = biological target: T6, 348 GPCRs (Homo sapiens, UniProt O00421); details: 10µM, Favipiravir 100μM
# T6 construct: expressed in transfected cells; host or cells: HEK293A
# T6 sequence (O00421 1-344): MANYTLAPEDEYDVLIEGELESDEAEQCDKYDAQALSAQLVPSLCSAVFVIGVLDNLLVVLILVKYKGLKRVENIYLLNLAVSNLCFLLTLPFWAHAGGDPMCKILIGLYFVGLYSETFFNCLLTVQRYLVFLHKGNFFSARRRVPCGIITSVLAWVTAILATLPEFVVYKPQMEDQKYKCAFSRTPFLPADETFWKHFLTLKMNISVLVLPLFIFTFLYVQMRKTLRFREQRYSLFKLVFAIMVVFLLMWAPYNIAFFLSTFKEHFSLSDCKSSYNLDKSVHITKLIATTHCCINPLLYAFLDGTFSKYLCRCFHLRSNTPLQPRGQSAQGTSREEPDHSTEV
# [8] = GPR142 (G protein-coupled receptor 142), read-out: % GPCR activation compared to TPA
# [9] = GPCR GPR1 (G protein-coupled receptor 1), read-out: % GPCR activation compared to TPA
# [10] = GPCR XCR1 (chemokine (C motif) receptor 1/GPR5), read-out: % GPCR activation compared to TPA
# [11] = PK2 (prokineticin receptor 2), read-out: % GPCR activation compared to TPA
# [12] = PROKR2 (prokineticin receptor 2), read-out: % GPCR activation compared to TPA
# [13] = GPCR M4 (Muscarinic acetylcholine receptor M4), read-out: % GPCR activation compared to TPA
# [14] = GPR34 (G Protein-Coupled Receptor 34), read-out: % GPCR activation compared to TPA
# [15] = CCRL2 (chemokine (C-C motif) receptor-like 2), read-out: % GPCR activation compared to TPA
# [16] = read-out: % GPCR activation compared to TPA, GPR142 (G protein-coupled receptor 142)
# [17] = read-out: % GPCR activation compared to TPA, GPCR GPR1 (G protein-coupled receptor 1)
# [18] = read-out: % GPCR activation compared to TPA, GPCR XCR1 (chemokine (C motif) receptor 1/GPR5)
# [19] = read-out: % GPCR activation compared to TPA, PK2 (prokineticin receptor 2)
# [20] = read-out: % GPCR activation compared to TPA, PROKR2 (prokineticin receptor 2)
# [21] = read-out: % GPCR activation compared to TPA, GPCR M4 (Muscarinic acetylcholine receptor M4)
# [22] = read-out: % GPCR activation compared to TPA, GPR34 (G Protein-Coupled Receptor 34)
# [23] = read-out: % GPCR activation compared to TPA, CCRL2 (chemokine (C-C motif) receptor-like 2)
# T4 sequence (Q8NFJ6 whole entry): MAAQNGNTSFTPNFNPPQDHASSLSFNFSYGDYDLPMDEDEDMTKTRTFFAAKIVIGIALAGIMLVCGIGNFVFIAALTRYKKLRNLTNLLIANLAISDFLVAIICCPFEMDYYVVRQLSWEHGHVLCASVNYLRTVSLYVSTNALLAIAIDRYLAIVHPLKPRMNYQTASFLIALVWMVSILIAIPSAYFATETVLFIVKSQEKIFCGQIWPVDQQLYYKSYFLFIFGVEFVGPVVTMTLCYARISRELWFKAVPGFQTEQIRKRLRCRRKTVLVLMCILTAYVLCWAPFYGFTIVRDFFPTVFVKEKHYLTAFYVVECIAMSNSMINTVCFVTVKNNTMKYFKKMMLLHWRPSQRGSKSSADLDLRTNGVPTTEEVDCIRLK
# Sequence of 348 GPCRs (Homo sapiens, UniProt Q9UPC5) (Q9UPC5 whole entry): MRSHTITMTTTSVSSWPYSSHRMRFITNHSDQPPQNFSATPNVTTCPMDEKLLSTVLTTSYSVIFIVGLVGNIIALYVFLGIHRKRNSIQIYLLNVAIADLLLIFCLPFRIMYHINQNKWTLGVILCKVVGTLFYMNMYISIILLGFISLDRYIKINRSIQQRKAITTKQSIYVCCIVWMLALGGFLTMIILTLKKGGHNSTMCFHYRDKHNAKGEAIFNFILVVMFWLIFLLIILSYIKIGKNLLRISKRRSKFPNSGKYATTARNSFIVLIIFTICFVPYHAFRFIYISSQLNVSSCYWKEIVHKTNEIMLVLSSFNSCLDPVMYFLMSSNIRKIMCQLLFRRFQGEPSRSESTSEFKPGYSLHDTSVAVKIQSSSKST
Compound,"activation at 100 µM [1, 8] [%]","activation at 10 µM [2, 9] [%]","activation at 10 µM [3, 10] [%]","activation at 10 µM [4, 11] [%]","activation at 100 µM [4, 12] [%]","activation at 10 µM [5, 13] [%]","activation at 10 µM [6, 14] [%]","activation at 10 µM [7, 15] [%]","activation at 100 µM ([2]; GPCR GPR1 (G protein-coupled receptor 1), 100μM, read-out: % GPCR activation compared to TPA) [%]","activation at 100 µM ([3]; GPCR XCR1 (chemokine (C motif) receptor 1/GPR5), 100μM, read-out: % GPCR activation compared to TPA) [%]","activation at 100 µM ([5]; GPCR M4 (Muscarinic acetylcholine receptor M4), 100μM, read-out: % GPCR activation compared to TPA) [%]","activation at 100 µM [1, 16] [%]","activation at 10 µM [2, 17] [%]","activation at 10 µM [3, 18] [%]","activation at 10 µM [4, 19] [%]","activation at 100 µM [4, 20] [%]","activation at 10 µM [5, 21] [%]","activation at 10 µM [6, 22] [%]","activation at 10 µM [7, 23] [%]"
CCC(CC)COC(=O)[C@H](C)N[P@](=O)(OC[C@H]1O[C@@](C#N)(c2ccc3c(N)ncnn23)[C@H](O)[C@@H]1O)Oc1ccccc1 [remdesivir],,,,,,,,,,,,1.22,2.72,0.628,-3.23,0.417,-2.98,-1.23,0.0536
CC(C)OC(=O)[C@H](C)N[P@](=O)(OC[C@H]1O[C@@H](n2ccc(=O)[nH]c2=O)[C@](C)(F)[C@@H]1O)Oc1ccccc1 [sofosbuvir],,,,,,,,,,,,3.77,-2.4,-0.208,-0.621,-2.61,-1.57,-0.895,1.66
CC(C)C(=O)OC[C@H]1O[C@@H](n2ccc(NO)nc2=O)[C@H](O)[C@@H]1O [molnupiravir],2.63,-1.07,-0.399,-5.79,-1.79,-1.11,-1.95,-0.522,,,,,,,,,,,

# More lines, main results first:
"activation at 100 µM [1, 8] [%]","activation at 10 µM [2, 9] [%]","activation at 10 µM [3, 10] [%]","activation at 10 µM [4, 11] [%]","activation at 100 µM [4, 12] [%]","activation at 10 µM [5, 13] [%]","activation at 10 µM [6, 14] [%]","activation at 10 µM [7, 15] [%]","activation at 100 µM ([2]; GPCR GPR1 (G protein-coupled receptor 1), 100μM, read-out: % GPCR activation compared to TPA) [%]","activation at 100 µM ([3]; GPCR XCR1 (chemokine (C motif) receptor 1/GPR5), 100μM, read-out: % GPCR activation compared to TPA) [%]","activation at 100 µM ([5]; GPCR M4 (Muscarinic acetylcholine receptor M4), 100μM, read-out: % GPCR activation compared to TPA) [%]",Compound,"activation at 100 µM [1, 16] [%]","activation at 10 µM [2, 17] [%]","activation at 10 µM [3, 18] [%]","activation at 10 µM [4, 19] [%]","activation at 100 µM [4, 20] [%]","activation at 10 µM [5, 21] [%]","activation at 10 µM [6, 22] [%]","activation at 10 µM [7, 23] [%]"
0.3,-3.33,-1.92,-2.39,-1.59,-4.09,-1.27,2.25,,,,N#C[C@@]1(c2ccc3c(N)ncnn23)O[C@H](CO)[C@@H](O)[C@H]1O [GS441524],,,,,,,,
-0.257,,,-4.29,0.524,,-0.575,0.0461,-1.92,0.846,-6.29,"NC(=O)c1nc(F)cnc1O [favipiravir, 6-fluoro-3-hydroxy-2-pyrazinecarboxamide]",,,,,,,,
